Measured values: PMC9218685, “Legume Plant Peptides as Sources of Novel Antimicrobial Molecules Against Human Pathogens” (Frontiers in Molecular Biosciences, 2022)
Converted amounts (≈) assume the structure as drawn. Ends that are not written are not given here. Peptide text beside a SMILES is read from it.

Key:
[1] = tested on: Escherichia coli (ATCC 8739); assay type: cell-based; conditions: ATCC 8739, 3 h
Outline: (§1)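 MBC read as lowest peptide concentration giving no viable bacteria; ~10^7 log-phase cells, PPB pH 7.4, 3 h treatment, 2-fold dilutions from 25 µM.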

[2] = tested on: Klebsiella pneumoniae (NCTC 13440); assay type: cell-based; conditions: NCTC 13440, 3 h
Outline: as §1

[3] = tested on: Salmonella enterica (ATCC 13076); assay type: cell-based; conditions: ATCC 13076, 3 h
Outline: as §1

[4] = tested on: Pseudomonas aeruginosa (ATCC 27853); assay type: cell-based; conditions: ATCC 27853, 3 h
Outline: as §1

[5] = tested on: Staphylococcus aureus (HNCMO112011); assay type: cell-based; conditions: HNCMO112011, 3 h
Outline: as §1

[6] = tested on: E. coli, S. enteritidis, P. aeruginosa, L. monocytogenes, S. aureus, E. faecalis, K. pneumoniae and A. baumannii; experiment: Antimicrobial activity assay, spectrum over the eight tested pathogenic bacteria; assay type: cell-based; conditions: 3 h treatment of ~10^7 log phase bacteria, peptides 25 to 0.8 µM; active = MBC ≤25 µM
Excerpt: (§2) The following pathogenic bacterial strains were used: The Gram-positive Enterococcus faecalis (ATCC 29212), Staphylococcus aureus (HNCMO112011), Listeria monocytogenes (ATCC 19111) and the Gram-negative Pseudomonas aeruginosa (ATCC 27853), Escherichia coli (ATCC 8739), Salmonella enterica (ATCC 13076), Klebsiella pneumoniae (NCTC 13440), Acinetobacter baumannii (ATCC 17978) obtained from the ATCC (United States) and NCTC (National Collection of Type Cultures–England). For the antifungal experiment the Candida albicans W01 strain ([Ördögh et al., 2014]) was used. Antimicrobial activities of peptides against ∼10^7 log phase bacteria were tested in Potassium-Phosphate Buffer (PPB, pH 7.4) as described by [Jenei et al. (2020)] while anti-Candida assays were done according to [Szerencsés et al. (2021)]. The two-fold dilution series of peptides ranged from 25 μM to 0.125 μM, while that of the antibiotics ampicillin (Merck) and miconazole (Duchefa Biochemie) from […] to 0.1 μM. The lowest concentration of the antimicrobial agents, which completely eliminated viable bacteria or C. albicans were considered as the minimal bactericidal concentration (MBC) and minimal fungicidal concentration (MFC).
We investigated the antimicrobial activity of 78 NCR peptides from M. truncatula and 12 NCRs from other IRLC legumes as well as their shorter derivatives against E. coli, S. enteritidis, P. aeruginosa, L. monocytogenes, S. aureus, E. faecalis, K. pneumoniae and A. baumannii (Supplementary Table S1). In the selection of the M. truncatula peptides, we considered their symbiotic expression levels but also their physicochemical properties. The antimicrobial activity of NCRs has so far been attributed to cationic peptides, with the exception of one anionic peptide. To investigate whether other anionic NCRs are antimicrobial, in addition to the cationic peptides, neutral and anionic NCRs were also included covering a broad range of peptides with different net charges (NC: from 7.8 to −10.2) and isoelectric points (pI: from 10.69 to 2.95). 50 peptides had positive net charge and pI > 7.0, while 28 peptides had negative net charge and pI < 7.0 (Supplementary Table S1A). Of the other legumes, only cationic NCR peptides were studied (Supplementary Table S1B).
The minimal bactericidal concentrations (MBCs) were determined after 3 h of treatment of ∼10^7 log phase bacteria with 2-fold serial dilution of peptides from 25 µM to 0.8 µM. Only 25 of the 50 cationic M. truncatula peptides had activity at ≤25 µM (Supplementary Table S1). […] Three peptides were only active against two bacterial strains; NCR649 against L. monocytogenes and A. baumannii, NCR281 against L. monocytogenes and P. aeruginosa and NCR350 against A. baumannii and P. aeruginosa. […] None of the anionic NCR peptides affected the survival of the tested bacterial strains.

[7] = tested on: Candida albicans W01 strain; experiment: microbe, parasite or virus in culture; assay type: cell-based; conditions: C. albicans W01, two-fold dilution series; lowest concentration completely eliminating viable C. albicans; read-out: MFC, minimal fungicidal concentration against C. albicans
Excerpt: as §2

A. baumannii = experiment: Scanning electron microscopy of cell morphology; assay type: cell-based, Acinetobacter baumannii; conditions: 30 min treatment, peptide 1.6 or 3.125 µM as in Figure 3 legend
Method: A. baumannii and C. albicans were grown and treated the same way as for the membrane permeability assay. Cells were then fixed with 2.5% (v/v) glutaraldehyde in phosphate buffered saline (PBS, pH 7.4). 5 μl of the above bacterial and yeast suspensions were spotted on a silicon disk coated with 0.01% Poly-L-Lysine. The filters were washed twice with PBS and gradually dehydrated with ethanol series (30, 50, 70, 80%, and three times 100% ethanol, each for minimum 30 min). The samples were dried with a critical point dryer (K850: Quorum Technologies Ltd.), followed by 12 nm gold coating and observed under a JEOL JSM-7100F/LV scanning electron microscope.
FIGURE 3 Viability, membrane permeability and morphology of A. baumannii cells after NCR treatment (A–L) SYTO9/PI staining observed with confocal microscope, (M–X) Cell morphology observed with SEM. (A,M) untreated control, (B,N) CaNCR13, 3.125 µM, (C,O) CaNCR63, 3.125 µM, (D,P) CaNCR63_1-20, 3.125 µM, (E,Q) CaNCR63_15-34, 3.125 µM, (F,R) MsNCR443, 3.125 µM, (G,S) MsNCR463_16-35, 1.6 µM, (H,T) MsNCR463_17-30, 3.125 µM, (I,U) PsNCR349, 1.6 µM, (J,V) PsNCR349_26-50, 3.125 µM, (K,W) PsNCR349_31-50, 3.125 µM, (L,X) PsNCR352, 1.6 µM.

[8] = tested on: Acinetobacter baumannii (ATCC 17978); experiment: microbe, parasite or virus in culture; assay type: cell-based; conditions: ATCC 17978, 3 h
Outline: as §1

[9] = tested on: Lambda DNA/HindIII marker; experiment: Gel retardation assay (DNA aggregation); assay type: binding; conditions: 100 ng DNA, 5 or 10 µM peptide in water, 30 min at room temperature, 1% agarose gel
Method: Interactions of peptides with DNA was visualized with gel retardation assay ([Hsu et al., 2005]). 100 ng Lambda DNA/HindIII marker (ThermoFisher Scientific) was incubated with 0, 5 or 10 µM synthetic NCRs or NCR derivatives in water for 30 min at room temperature and then loaded into 1% agarose gel. Electrophoresis of DNA fragments separated the mobile HindIII-digested DNA fragments while the aggregated DNA remained in the loading wells.
FIGURE 6 Aggregation of DNA by NCR peptides. Lambda HindIII digested DNA was incubated without (0) or with NCR peptides at 5 or 10 μM concentration.

[10] = tested on: Enterococcus faecalis (ATCC 29212); assay type: cell-based; conditions: for Ability to kill E. faecalis: 3 h, ~10^7 log phase bacteria, peptides ≤25 µM; for MBC Enterococcus faecalis: ATCC 29212, 3 h
Outline: as §1

[11] = tested on: Listeria monocytogenes (ATCC 19111); assay type: cell-based; conditions: ATCC 19111, 3 h
Outline: as §1

In the case of `CC[C@H](C)[C@H](NC(=O)CNC(=O)[C@H](CCCNC(=N)N)NC(=O)[C@H](CCCCN)NC(=O)[C@H](CCCNC(=N)N)NC(=O)[C@@H](NC(=O)[C@H](CCCCN)NC(=O)[C@H](CS)NC(=O)[C@H](CC(C)C)NC(=O)CNC(=O)CNC(=O)[C@@H](NC(=O)[C@H](CS)NC(=O)[C@H](CCCNC(=N)N)NC(=O)[C@@H](N)Cc1c[nH]cn1)[C@@H](C)CC)C(C)C)C(=O)N[C@@H](CCCCN)C(=O)NCC(=O)N[C@@H](Cc1ccccc1)C(=O)N[C@H](C(=O)N[C@@H](CC(N)=O)C(=O)N[C@H](C(=O)N1CCC[C@H]1C(N)=O)[C@@H](C)CC)[C@@H](C)CC` [GoNCR313 (23-44)] (H-HRCIGGLCKVRKRGIKGFINIP-NH2; N-terminus assumed), the “MBC Escherichia coli” value [1] is reported as 3.125 µM (≈ 7.7 µg/mL), the “MBC Klebsiella pneumoniae” value [2] is reported as 12.5 µM (≈ 30.8 µg/mL) and the “MBC Salmonella enterica” value [3] is reported as 6.25 µM (≈ 15.4 µg/mL). The “MBC Pseudomonas aeruginosa” value [4] was 3.125 µM (≈ 7.7 µg/mL).
`CC[C@H](C)[C@H](NC(=O)[C@H](CS)NC(=O)[C@H](CO)NC(=O)[C@H](CCCNC(=N)N)NC(=O)[C@H](CO)NC(=O)[C@H](Cc1ccccc1)NC(=O)[C@@H]1CCCN1C(=O)[C@H](CC(C)C)NC(=O)[C@H](Cc1ccc(O)cc1)NC(=O)[C@H](C)N)C(=O)N[C@@H](CO)C(=O)N[C@@H](CC(=O)O)C(=O)N[C@@H](CCCCN)C(=O)N[C@@H](CC(=O)O)C(=O)N[C@@H](CS)C(=O)N1CCC[C@H]1C(=O)N[C@@H](CCC(N)=O)C(=O)N[C@H](C(=O)N[C@@H](CCCCN)C(=O)N[C@@H](CC(N)=O)C(=O)N[C@@H](Cc1ccccc1)C(=O)N[C@@H](CO)C(=O)N[C@@H](C)C(=O)N[C@@H](CCCNC(=N)N)C(=O)N[C@@H](CS)C(=O)N[C@@H](CCCNC(=N)N)C(=O)N[C@@H](CCCCN)C(=O)NCC(=O)N[C@@H](Cc1ccc(O)cc1)C(=O)N[C@@H](CS)C(=O)N[C@@H](CCC(N)=O)C(=O)N[C@@H](Cc1ccccc1)C(=O)N[C@@H](CCCNC(=N)N)C(=O)N[C@H](C(=O)N[C@H](C(=O)N[C@@H](CCCNC(=N)N)C(=O)O)C(C)C)C(C)C)C(C)C` [NCR471] (H-AYLPFSRSCISDKDCPQVKNFSARCRKGYCQFRVVR-OH; N-terminus assumed) was tested, and the “MBC Escherichia coli” value [1] was 25 µM (≈ 106 µg/mL), the “MBC Staphylococcus aureus” value [5] was 12.5 µM (≈ 52.9 µg/mL) and the “MBC Salmonella enterica” value [3] was 25 µM (≈ 106 µg/mL). For the same compound, the “MBC Pseudomonas aeruginosa” value [4] was 3.125 µM (≈ 13.2 µg/mL) and the “Antibacterial spectrum over the eight tested bacterial strains” value [6] was “effective against five or four strains”.
For `CSCC[C@H](NC(=O)[C@H](CC(N)=O)NC(=O)[C@H](Cc1ccccc1)NC(=O)[C@@H](NC(=O)[C@H](CC(C)C)NC(=O)[C@H](CCCCN)NC(=O)[C@H](CCCCN)NC(=O)[C@H](CCCCN)NC(=O)[C@H](CCCCN)NC(=O)[C@H](CCCCN)NC(=O)[C@H](CC(C)C)NC(=O)[C@H](CCCCN)NC(=O)[C@H](CCCCN)NC(=O)[C@H](CCCCN)NC(=O)[C@H](Cc1c[nH]cn1)NC(=O)[C@H](CCCCN)NC(=O)[C@H](CCC(N)=O)NC(=O)[C@@H](NC(=O)[C@H](CS)NC(=O)[C@H](Cc1ccc(O)cc1)NC(=O)[C@H](CS)NC(=O)[C@@H](NC(=O)[C@H](CCCCN)NC(=O)[C@H](Cc1c[nH]c2ccccc12)NC(=O)[C@@H](N)C(C)C)[C@@H](C)O)C(C)C)[C@@H](C)O)C(N)=O` [PsNCR349_26-50] (H-VWKTCYCVQKHKKKLKKKKKLTFNM-NH2; N-terminus assumed), the MFC [7] was 3.125 µM (≈ 9.81 µg/mL), the “Morphology of A. baumannii cells by SEM” value (A. baumannii) was “Filament-like structures” and the MBC ([8]; pH 7.4, read-out: MBC, minimal bactericidal concentration against A. baumannii) was 3.125 µM (≈ 9.81 µg/mL). For the same compound, the “Aggregation of HindIII-digested λ DNA (DNA retained in loading wells)” value [9] was “DNA remained in the wells”.
In the case of `CC[C@H](C)[C@H](NC(=O)[C@H](CO)NC(=O)[C@@H](NC(=O)[C@H](CO)NC(=O)[C@@H]1CCCN1C(=O)[C@@H]1CCCN1C(=O)[C@H](CS)NC(=O)[C@H](CC(=O)O)NC(=O)[C@@H](NC(=O)[C@H](CC(=O)O)NC(=O)[C@@H](NC(=O)[C@H](CCCCN)NC(=O)[C@H](CS)NC(=O)[C@H](CCCCN)NC(=O)[C@@H](NC(=O)[C@H](C)NC(=O)[C@@H](NC(=O)[C@H](C)N)C(C)C)[C@@H](C)O)[C@@H](C)O)C(C)C)[C@@H](C)O)C(=O)N[C@@H](CCCNC(=N)N)C(=O)N[C@@H](CCCNC(=N)N)C(=O)N[C@@H](Cc1ccc(O)cc1)C(=O)N[C@@H](CCCCN)C(=O)N[C@@H](CS)C(=O)N[C@H](C(=O)N[C@@H](CCCCN)C(=O)N[C@@H](CC(N)=O)C(=O)N[C@@H](CCCCN)C(=O)N[C@@H](CS)C(=O)N[C@@H](CCCNC(=N)N)C(=O)N[C@@H](Cc1ccc(O)cc1)C(=O)N[C@H](C(=O)N[C@@H](CCCNC(=N)N)C(=O)N[C@@H](CC(C)C)C(=O)N[C@@H](CO)C(=O)N[C@@H](Cc1ccc(O)cc1)C(=O)NCC(N)=O)[C@@H](C)O)[C@@H](C)O` [PsNCR351] (H-AVATKCKTDVDCPPSTSIRRYKCTKNKCRYTRLSYG-NH2; N-terminus assumed), the “MBC Escherichia coli” value [1] is reported as 3.125 µM (≈ 12.9 µg/mL), the “Ability to kill E. faecalis” value [10] is reported as “able to kill” and the “MBC Enterococcus faecalis” value [10] is reported as 12.5 µM (≈ 51.4 µg/mL). For the same compound, the “MBC Listeria monocytogenes” value [11] was 6.25 µM (≈ 25.7 µg/mL), the “MBC Staphylococcus aureus” value [5] was 6.25 µM (≈ 25.7 µg/mL) and the “MBC Salmonella enterica” value [3] was 25 µM (≈ 103 µg/mL). For the same compound, the “MBC Pseudomonas aeruginosa” value [4] was 3.125 µM (≈ 12.9 µg/mL) and the “MBC Acinetobacter baumannii” value [8] was 3.125 µM (≈ 12.9 µg/mL).
For “FIDCETVADCPTHWAYIYVCEKNKCRYHFKSGRVRPDHQKNRHNRV-OH (cysteines drawn unpaired) [NCR520]”, the “MBC Escherichia coli” value [1] was 25 µM, the “Ability to kill E. faecalis” value [10] was “able to kill” and the “MBC Enterococcus faecalis” value [10] was 25 µM. The “MBC Staphylococcus aureus” value [5] was 25 µM, the “MBC Pseudomonas aeruginosa” value [4] was 3.125 µM and the “Antibacterial spectrum over the eight tested bacterial strains” value [6] was “effective against five or four strains”.
